Reference: US12083079B2, “Sphingoid compounds for prophylaxis and/or therapy of a viral infection” (priority 2018, dated 2024)

How the values were obtained:
[1] = tested on: lymphocytic choriomeningitis virus (LCMV); type: cell-based
rhinovirus 14 (RV14) = experiment: RV14 infection of freshly isolated human epithelial cells, Hela cytotoxicity readout; type: cell-based; conditions: 10 μM or 20 μM, 24 hrs
Procedure: (§1) 10^4 PFU of Rhinovirus 2 or 14 (RV2, RV14) were incubated with freshly isolated human epithelial cells for 24 hrs in the presence of 10 μM or 20 μM sphingosine (SPH) or the corresponding concentration of the solvent octylglucopyranoside (OGP), the cells were pelleted, supernatants completely removed, the cell pellets resuspended in PBS and added to Hela cells. Cells were incubated for 3 days and cytotoxicity as measurement for virus titers was determined. Shown is the mean±SD, n=4, *p<0.001 ANOVA.

[2] = tested on: lymphocytic choriomeningitis virus (LCMV); type: cell-based; remark: listed apart in the source
[3] = tested on: rhinovirus strain 2 (RV2); experiment: Intranasal RV2 infection of wild-type mice, Hela cell death bioassay of nasal bone; type: in vivo; conditions: 10 μL of 100 μM intranasal, 10 min prior to or 1, 4 or 8 hrs after infection, sacrificed after 24 hrs
Procedure: Mice were infected with 10^3 PFU rhinovirus strain 2 (RV2) in 10 μL PBS. The virus was applied directly into the nose using a blunt ended, plastic coated 30 g needle, that was inserted into the nose approximately 2 mm. Sphingosine (SPH) was applied into the nose of the wild-type mice at a concentration of 100 μM solution in PBS in a volume of 10 μL. Sphingosine was applied either 10 min prior to rhinovirus infection (b.i.) or 1 hr, 4 hrs and 8 hrs after the infection (a.i.). Controls received the solvent, i.e. octylglucopyranoside (OGP) at the same concentration than used when sphingosine was applied, or were left untreated, but infected. Solutions were applied as in 3.2. Mice were sacrificed after 24 hrs, the nasal bone was removed and incubated for 4 days with Hela cells in a 24 well plate. If the nasal epithelial cells are infected, rhinovirus will be released due to the cytopathic effect of the virus and the in vivo infection can then be determined and quantified by measuring cell death of Hela cells as a bioassay. To this end, dead cells were collected, adherent cells were trypsinized, the fractions were combined, washed twice in H/S (20 mM HEPES, 132 mM NaCl, 5 mM KCl, 1 mM CaCl2), 0.7 mM MgCl2, 0.8 mM MgSO4, pH 7.4), stained with Trypan Blue (0.2% final concentration) and dead cells were counted in aliquots of 500 cells as above. […]

[4] = tested on: epithelial cells of the nose; experiment: Dead nasal epithelial cells after intranasal sphingosine (Trypan Blue); type: in vivo; conditions: wild-type mice, 10 μL of 10 μM or 100 μM solution intranasal; 8 hours or 24 hours
Procedure: Sphingosine was applied into the nose of wild-type mice as in 3.2. 10 μL of a 10 μM or a 100 μM sphingosine (SPH) solution was administered into the nostrils of wild-type mice. Controls received the solvent, i.e. octylglucopyranoside at the same concentration used when sphingosine was applied, or were left untreated. Mice were anesthetized prior to application of sphingosine. Mice were sacrificed after 8 hours or 24 hours, the nasal bone was removed and incubated in Trypsin solution for 10 min to release and isolate epithelial cells. Cells were washed twice in H/S (20 mM HEPES, 132 mM NaCl, 5 mM KCl, 1 mM CaCl2), 0.7 mM MgCl2, 0.8 mM MgSO4, pH 7.4), stained with Trypan Blue (0.2% final concentration) and dead cells were counted in aliquots of 500 cells. Given is the percentage of dead cells±SD from 4 independent experiments each; *p<0.05, ANOVA.

rhinovirus 2 (RV2) = experiment: RV2 infection of freshly isolated human epithelial cells, Hela cytotoxicity readout; type: cell-based; conditions: 10 μM or 20 μM, 24 hrs
Procedure: as §1

[5] = tested on: rhinovirus strain RV2 (minor strain); experiment: Rhinovirus RV2 infection of Hela cells, dead cells by Trypan Blue; type: cell-based; conditions: added 10 min before or 60 min or 240 min after infection, 4 days
[6] = tested on: rhinovirus strain RV14 (major strain); experiment: Rhinovirus RV14 infection of Hela cells, dead cells by Trypan Blue; type: cell-based; conditions: added 10 min before or 60 min or 240 min after infection, 4 days
RV1b = experiment: Binding of sphingosine to RV1b immobilized to agarose beads, remaining sphingosine by kinase assay; parameters: species or system rhinovirus; conditions: 250 μM sphingosine in PBS (pH 7.0), 4 hrs at 4° C.
Procedure: As a complement to the above study, RV1b (obtained from ATCC) were immobilized to agarose beads and tested for binding of sphingosine (SPH). To this end, we incubated 1 μg/ml anti-RV1b antibodies with 10^6 CFU RV1b for 1 h at 4° C. in H/S, added 50 μL agarose protein A/G beads (Santa Cruz Inc.), incubated for an additional 1 h at 4° C. and washed the immobilized precipitates 5-times in H/S. We resuspended the beads in 500 μL PBS (pH 7.0) containing 250 μM sphingosine. Samples were incubated for 4 hrs at 4° C., pelleted and aliquots of the supernatants were added to 50 mM HEPES (pH 7.4), 250 mM NaCl, 30 mM MgCl2, 0.001 units sphingosine kinase (R&D), 1 mM ATP and 10 μCi [^32P]γATP. The kinase reaction was performed for 1 hr at 30° C., stopped by addition of 20 μl 1N HCl, 800 μl CHCl3/CH3OH/1N HCl (100:200:1, v/v/v), 240 μl CHCl3 and 2 M KCl. Phases were separated, the lower phase was collected, dried, dissolved in 20 μL of CHCl3:CH3OH (1:1, v/v) and separated on Silica G60 thin layer chromatography (TLC) plates using CHCl3/CH3OH/acetic acid/H2O (90:90:15:5, v/v/v/v). The TLC plates were exposed to radiography films, spots were removed from the plates, and the incorporation of [^32P] into sphingosine measured by liquid scintillation counting. Sphingosine was determined using a standard curve of C18-SPH. […]

[7] = Surface sphingosine in nasal mucosa after intranasal application, in situ sphingosine kinase assay; type: in vivo; conditions: wild-type mice
Procedure: Sphingosine (SPH) was applied into the nose of wild-type mice and the concentration of sphingosine on the epithelial cell surface was determined after 1, 4 and 8 hrs (a.i.: after injection of sphingosine). To this end, 10 μl, of a 10 μM or a 100 μM sphingosine solution was applied into the nostrils of wild-type mice. Controls received the solvent, i.e. octylglucopyranoside at the same concentration used when sphingosine was applied, or were left untreated. Mice were slightly and very briefly anesthetized with ether. For the intranasal application we used a blunt-end 30 g needle that was covered with a thin plastic film. The blunt-ended needle was inserted into the nostrils approximately 2 mm. Mice were sacrificed after the indicated time, the nasal bone was removed, placed on a 30° C. pre-warmed plastic plate and an area of 2 mm×2 mm was immediately incubated with 0.001 units of sphingosine kinase 1 (#6068-SK-010, R&D) in 4 μl of 150 mM sodium acetate (pH 7.4), 1 μM ATP, and 10 μCi [^32P]γATP/sample. Controls were incubated with the same buffer without sphingosine kinase or were left untreated. […] The TLC plates were analyzed with a phosphoimager. Surface sphingosine levels were determined with a standard curve of C18-sphingosine. […]

Hela cells = conditions: uninfected Hela cells, 10 μM or 20 μM
HIV-1 JR-CSF = experiment: HIV-P24 ELISA in supernatant of infected human T cells; type: cell-based; conditions: 50 μM, after 7 days
[8] = tested on: vesicular stomatitis virus (VSV); type: cell-based

Compound: Oc1ccc(Nc2nc(-c3ccc(Cl)cc3)cs2)cc1 [SKII, 2-(p-hydroxyanilino)-4-(p-chlorophenyl)thiazole]
- virus-infected cells by immunofluorescence [1]: inhibits the spreading of the virus

Compound: CCCCCCCCCCCCC/C=C/[C@@H](O)[C@@H](N)CO [sphingosine, (2S,3R,4E)-2-amino-4-octadecene-1,3-diol]
- infection of human epithelial cells by RV14 (cytotoxicity as measurement for virus titers) (rhinovirus 14 (RV14)): abrogates infection
- virus production (infectious LCMV particles in the supernatant) [2]: inhibits the propagation of LCMV
- infection with RV2 in vivo (percentage of dead Hela cells, bioassay) [3]: prevented
- toxic effects (percentage of dead nasal epithelial cells) [4]: no toxic effects on epithelial cells of the nose
- infection of human epithelial cells by RV2 (cytotoxicity as measurement for virus titers) (rhinovirus 2 (RV2)): abrogates infection
- infection with RV2 (percentage of dead cells) ([5]; 10 μM): prevented the infection
- infection with RV2 (percentage of dead cells) ([5]; 20 μM): prevented the infection
- infection with RV14 (percentage of dead cells) ([6]; 10 μM): prevented the infection
- infection with RV14 (percentage of dead cells) ([6]; 20 μM): prevented the infection
- binding of sphingosine to RV1b-coupled agarose beads (remaining sphingosine in the supernatant) (RV1b): efficiently bind sphingosine
- surface sphingosine concentration in nasal mucosa ([7]; 10 μl of 10 μM or 100 μM solution into the nostrils, 1, 4 and 8 hrs): dose-dependent accumulation of sphingosine in the mucosa
- surface sphingosine concentration after washing the mucosa in PBS ([7]; washing prior to the in situ kinase assay): reduces sphingosine accumulation
- effect of sphingosine itself on the cells (percentage of dead cells) (Hela cells): had no effect on the cells

Compound: MP A08
- amount of HIV-P24 in the supernatant (HIV-1 JR-CSF): prevents the propagation of HIV

Compound: sphingomyelinase
- virus production (infectious LCMV particles in the supernatant) [2]: inhibits the propagation of LCMV
- number of plaques [8]: inhibits the propagation of VSV
